Test results taken from ChEMBL document CHEMBL1201862, “PubChem BioAssay data set” (2004).
Active and inactive are the calls of the source.

How the values were obtained:
[1] = biological target: T1, Mannose-6-phosphate isomerase (Homo sapiens, UniProt P34949); experiment: MPI inhibition at elevated mannose 6-phosphate – biochemical, fluorescence intensity, high mannose 6-phosphate, primary screen (AID 1220)
T1 sequence (P34949 whole entry): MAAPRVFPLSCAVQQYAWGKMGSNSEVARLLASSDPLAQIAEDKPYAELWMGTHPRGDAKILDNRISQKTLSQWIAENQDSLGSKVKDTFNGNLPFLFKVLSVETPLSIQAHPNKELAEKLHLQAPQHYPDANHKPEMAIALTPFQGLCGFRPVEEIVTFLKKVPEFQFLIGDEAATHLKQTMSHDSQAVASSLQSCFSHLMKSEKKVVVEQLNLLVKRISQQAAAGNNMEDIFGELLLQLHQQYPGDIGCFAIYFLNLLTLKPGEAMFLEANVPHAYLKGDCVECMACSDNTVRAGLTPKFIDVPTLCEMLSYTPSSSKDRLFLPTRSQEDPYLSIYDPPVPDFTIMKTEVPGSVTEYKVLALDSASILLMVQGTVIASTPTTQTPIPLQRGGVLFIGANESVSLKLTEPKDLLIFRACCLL

ORF 73 = biological target: T2, ORF 73 (Human herpesvirus 8, UniProt O40947); experiment: KSHV LANA DNA-binding disruption – biochemical, fluorescence polarization, cherry-picked samples, dose response (AID 504725); parameters: species or system Human gammaherpesvirus 8;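 note: fluorescence polarization of a labeled DNA duplex reporting LANA DNA binding; potency is for inhibitors that block LANA binding to the DNA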
T2 sequence (O40947 whole entry): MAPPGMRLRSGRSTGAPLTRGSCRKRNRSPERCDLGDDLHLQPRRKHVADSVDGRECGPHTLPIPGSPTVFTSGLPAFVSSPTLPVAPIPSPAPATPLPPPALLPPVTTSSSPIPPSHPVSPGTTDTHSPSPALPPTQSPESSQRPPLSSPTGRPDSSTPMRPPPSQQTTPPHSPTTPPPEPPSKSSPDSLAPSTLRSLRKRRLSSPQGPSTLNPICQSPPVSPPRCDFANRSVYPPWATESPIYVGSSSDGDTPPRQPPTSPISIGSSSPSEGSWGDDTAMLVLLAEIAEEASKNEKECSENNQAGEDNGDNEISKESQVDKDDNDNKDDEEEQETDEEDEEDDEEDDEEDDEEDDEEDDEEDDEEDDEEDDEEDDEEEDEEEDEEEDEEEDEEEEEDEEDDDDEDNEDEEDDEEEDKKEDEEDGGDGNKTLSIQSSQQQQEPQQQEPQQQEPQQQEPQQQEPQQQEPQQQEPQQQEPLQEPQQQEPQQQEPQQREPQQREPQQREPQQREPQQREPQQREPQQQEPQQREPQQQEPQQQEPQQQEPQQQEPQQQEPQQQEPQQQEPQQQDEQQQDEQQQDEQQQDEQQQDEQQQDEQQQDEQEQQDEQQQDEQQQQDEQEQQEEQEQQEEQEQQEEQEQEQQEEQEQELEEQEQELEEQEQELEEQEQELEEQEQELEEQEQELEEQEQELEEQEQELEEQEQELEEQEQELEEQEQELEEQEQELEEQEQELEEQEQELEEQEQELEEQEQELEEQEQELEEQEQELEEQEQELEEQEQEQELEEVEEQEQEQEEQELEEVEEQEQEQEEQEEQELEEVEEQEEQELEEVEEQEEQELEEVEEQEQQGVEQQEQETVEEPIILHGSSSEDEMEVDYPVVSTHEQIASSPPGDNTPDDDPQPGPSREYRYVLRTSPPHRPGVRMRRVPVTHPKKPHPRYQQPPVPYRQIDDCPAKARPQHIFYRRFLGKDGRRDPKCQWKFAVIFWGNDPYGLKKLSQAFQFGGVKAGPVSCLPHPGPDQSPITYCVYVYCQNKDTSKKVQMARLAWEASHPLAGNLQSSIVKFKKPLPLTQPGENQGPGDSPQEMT

Keap1/Nrf2 = Keap1/Nrf2 (Homo sapiens, UniProt Q14145); experiment: disruptors of Keap1 binding to Nrf2 peptide – biochemical, fluorescence polarization, cherry-picked samples, dose response (AID 588683)
HEK293 [2] = experiment: cells; conditions: Homo sapiens
HEK293 [3] = experiment: cells; conditions: Homo sapiens; remark: listed apart in the source
Exodeoxyribonuclease V = biological target: T3, Exodeoxyribonuclease V (Escherichia coli (strain K12), UniProt P04993+P07648+P08394); experiment: RecBCD inhibition via phage-restricted bacterial growth – absorbance, V66 E. coli, mutant T4 phage, counter-screen for AddAB inhibitor project, dose response (AID 492957); type: functional, cell-based, Escherichia coli str. K-12 substr. MG1655
T3 sequence (P04993 whole entry): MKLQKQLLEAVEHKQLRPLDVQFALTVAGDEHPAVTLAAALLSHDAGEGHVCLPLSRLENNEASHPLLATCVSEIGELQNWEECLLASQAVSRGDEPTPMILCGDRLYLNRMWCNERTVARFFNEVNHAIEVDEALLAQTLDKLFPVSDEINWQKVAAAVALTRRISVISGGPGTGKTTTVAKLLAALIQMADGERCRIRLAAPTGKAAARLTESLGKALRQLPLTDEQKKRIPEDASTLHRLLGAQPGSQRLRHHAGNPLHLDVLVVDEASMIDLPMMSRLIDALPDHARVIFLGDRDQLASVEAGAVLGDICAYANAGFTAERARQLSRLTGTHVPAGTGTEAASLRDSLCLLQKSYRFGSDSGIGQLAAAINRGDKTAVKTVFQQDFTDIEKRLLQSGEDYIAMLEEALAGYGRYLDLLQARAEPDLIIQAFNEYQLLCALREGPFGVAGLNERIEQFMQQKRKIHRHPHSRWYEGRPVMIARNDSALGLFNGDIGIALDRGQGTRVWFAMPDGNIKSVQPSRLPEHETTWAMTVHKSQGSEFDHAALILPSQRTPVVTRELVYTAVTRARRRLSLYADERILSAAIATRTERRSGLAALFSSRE
T3 sequence (P07648 whole entry): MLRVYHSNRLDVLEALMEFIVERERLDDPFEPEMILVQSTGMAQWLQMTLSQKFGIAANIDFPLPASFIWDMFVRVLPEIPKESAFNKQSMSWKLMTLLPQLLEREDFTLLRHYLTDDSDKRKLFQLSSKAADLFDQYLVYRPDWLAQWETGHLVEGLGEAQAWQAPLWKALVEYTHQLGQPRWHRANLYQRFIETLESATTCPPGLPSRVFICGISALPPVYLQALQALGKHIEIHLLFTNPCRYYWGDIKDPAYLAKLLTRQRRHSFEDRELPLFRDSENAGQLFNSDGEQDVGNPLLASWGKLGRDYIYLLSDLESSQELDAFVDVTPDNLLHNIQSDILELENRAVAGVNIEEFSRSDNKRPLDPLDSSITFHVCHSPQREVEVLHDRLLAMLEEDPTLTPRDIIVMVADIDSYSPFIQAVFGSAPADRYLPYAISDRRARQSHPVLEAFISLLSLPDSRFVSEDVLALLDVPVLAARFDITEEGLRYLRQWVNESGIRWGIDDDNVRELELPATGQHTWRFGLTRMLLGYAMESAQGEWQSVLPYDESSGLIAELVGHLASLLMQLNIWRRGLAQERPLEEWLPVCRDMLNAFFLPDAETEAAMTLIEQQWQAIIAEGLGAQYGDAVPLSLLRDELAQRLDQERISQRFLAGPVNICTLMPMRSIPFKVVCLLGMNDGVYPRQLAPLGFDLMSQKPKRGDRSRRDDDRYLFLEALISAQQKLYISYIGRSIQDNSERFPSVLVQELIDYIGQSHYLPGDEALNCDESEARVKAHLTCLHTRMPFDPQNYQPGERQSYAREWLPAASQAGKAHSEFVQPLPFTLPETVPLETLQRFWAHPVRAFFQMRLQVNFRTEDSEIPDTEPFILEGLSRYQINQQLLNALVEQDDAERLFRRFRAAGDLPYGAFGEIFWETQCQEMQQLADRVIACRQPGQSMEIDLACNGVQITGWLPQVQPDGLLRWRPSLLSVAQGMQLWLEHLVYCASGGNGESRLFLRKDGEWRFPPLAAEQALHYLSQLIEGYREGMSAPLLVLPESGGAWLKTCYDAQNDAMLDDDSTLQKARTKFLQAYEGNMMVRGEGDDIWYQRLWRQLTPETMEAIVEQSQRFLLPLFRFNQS
T3 sequence (P08394 whole entry): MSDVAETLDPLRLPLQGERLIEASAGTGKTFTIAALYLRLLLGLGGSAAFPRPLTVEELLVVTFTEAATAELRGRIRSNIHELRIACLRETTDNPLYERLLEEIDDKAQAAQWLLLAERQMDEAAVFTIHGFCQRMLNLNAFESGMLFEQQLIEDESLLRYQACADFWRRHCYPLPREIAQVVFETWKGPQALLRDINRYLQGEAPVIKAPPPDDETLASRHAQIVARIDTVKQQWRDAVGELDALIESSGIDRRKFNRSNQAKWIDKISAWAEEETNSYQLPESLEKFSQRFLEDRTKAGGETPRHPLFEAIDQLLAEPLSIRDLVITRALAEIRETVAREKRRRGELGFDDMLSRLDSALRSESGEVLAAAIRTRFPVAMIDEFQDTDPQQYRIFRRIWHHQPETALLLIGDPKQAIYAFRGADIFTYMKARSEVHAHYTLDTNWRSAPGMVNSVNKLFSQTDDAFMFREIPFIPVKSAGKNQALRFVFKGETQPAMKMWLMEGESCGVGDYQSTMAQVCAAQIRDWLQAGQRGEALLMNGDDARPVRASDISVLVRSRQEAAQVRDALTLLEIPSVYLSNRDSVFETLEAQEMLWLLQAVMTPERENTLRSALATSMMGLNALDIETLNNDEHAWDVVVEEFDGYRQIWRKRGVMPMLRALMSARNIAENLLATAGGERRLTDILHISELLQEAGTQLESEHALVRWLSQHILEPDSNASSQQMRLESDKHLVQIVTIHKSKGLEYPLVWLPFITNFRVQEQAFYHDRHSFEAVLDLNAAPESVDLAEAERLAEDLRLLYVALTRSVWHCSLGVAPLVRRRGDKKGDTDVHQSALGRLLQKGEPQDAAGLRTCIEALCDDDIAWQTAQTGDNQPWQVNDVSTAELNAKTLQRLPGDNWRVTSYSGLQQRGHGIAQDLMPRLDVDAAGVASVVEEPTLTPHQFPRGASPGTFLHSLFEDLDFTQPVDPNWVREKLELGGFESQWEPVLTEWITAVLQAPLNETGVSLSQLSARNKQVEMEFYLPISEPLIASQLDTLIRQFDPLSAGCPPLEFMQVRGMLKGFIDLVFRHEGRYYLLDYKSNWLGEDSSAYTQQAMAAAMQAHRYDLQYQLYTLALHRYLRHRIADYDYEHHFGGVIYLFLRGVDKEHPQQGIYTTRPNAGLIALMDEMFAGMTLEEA

[4] = Counterscreen for AddAB inhibitors: absorbance-based bacterial cell-based high throughput dose response assay for inhibitors of bacterial viability. [Related pubchem assays (depositor defined):AID435030, AID449728, AID449731, AID488942, AID488955, AID488956]; type: functional
[5] = biological target: T4, Heat shock factor protein 1 (Mus musculus, UniProt P38532); experiment: decrease of HSF1-responsive luciferase luminescence – cell-based, NIH3T3, dose retest, confirmation (AID 2382); type: functional;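 note: NIH3T3 fibroblasts with HSF1-driven luciferase reporter stressed by proteasome inhibitor MG132; luminescence from HSF1-driven luciferase expression after 8 hours of MG132 stress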
T4 sequence (P38532 whole entry): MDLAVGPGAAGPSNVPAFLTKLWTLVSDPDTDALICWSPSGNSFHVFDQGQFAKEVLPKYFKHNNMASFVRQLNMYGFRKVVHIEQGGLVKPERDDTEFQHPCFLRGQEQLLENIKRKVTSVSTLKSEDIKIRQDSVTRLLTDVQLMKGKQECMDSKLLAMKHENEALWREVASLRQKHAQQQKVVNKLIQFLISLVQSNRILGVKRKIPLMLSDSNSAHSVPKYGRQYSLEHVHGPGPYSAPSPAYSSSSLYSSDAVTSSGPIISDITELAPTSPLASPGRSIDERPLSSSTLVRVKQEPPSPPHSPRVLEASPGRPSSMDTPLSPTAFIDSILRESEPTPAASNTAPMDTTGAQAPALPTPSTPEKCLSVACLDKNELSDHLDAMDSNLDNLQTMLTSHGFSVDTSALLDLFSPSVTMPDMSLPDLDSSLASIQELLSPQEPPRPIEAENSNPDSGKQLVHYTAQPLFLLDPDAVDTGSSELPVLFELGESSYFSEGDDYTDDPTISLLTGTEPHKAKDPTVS

[6] = microbe, parasite or virus in culture; type: functional; conditions: Mycobacterium tuberculosis
Vero [7] = experiment: cells; type: functional; conditions: Chlorocebus sabaeus
[8] = biological target: T5, Ubiquitin-conjugating enzyme E2 N (Homo sapiens, UniProt P61088); type: functional;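 note: Dose-response confirmation in a TR-FRET assay detecting UBC13-driven polyubiquitin chain formation, inhibition measured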
T5 sequence (P61088 whole entry): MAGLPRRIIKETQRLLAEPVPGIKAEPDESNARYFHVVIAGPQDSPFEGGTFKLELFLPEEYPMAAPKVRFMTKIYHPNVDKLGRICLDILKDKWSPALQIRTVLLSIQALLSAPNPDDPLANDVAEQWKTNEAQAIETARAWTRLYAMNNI

Vero [9] = experiment: cells; type: functional, cell-based; conditions: Chlorocebus sabaeus
[10] = biological target: Voltage-dependent T-type calcium channel subunit alpha-1H (Homo sapiens, UniProt O95180); type: functional;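 note: channel activity triggered by adding a high calcium stimulation buffer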
[11] = biological target: T1, Mannose-6-phosphate isomerase; experiment: phosphomannose isomerase inhibition – biochemical, fluorescence intensity, confirmation (AID 1535)

Keap1/Nrf2, sequence (Q16236 whole entry): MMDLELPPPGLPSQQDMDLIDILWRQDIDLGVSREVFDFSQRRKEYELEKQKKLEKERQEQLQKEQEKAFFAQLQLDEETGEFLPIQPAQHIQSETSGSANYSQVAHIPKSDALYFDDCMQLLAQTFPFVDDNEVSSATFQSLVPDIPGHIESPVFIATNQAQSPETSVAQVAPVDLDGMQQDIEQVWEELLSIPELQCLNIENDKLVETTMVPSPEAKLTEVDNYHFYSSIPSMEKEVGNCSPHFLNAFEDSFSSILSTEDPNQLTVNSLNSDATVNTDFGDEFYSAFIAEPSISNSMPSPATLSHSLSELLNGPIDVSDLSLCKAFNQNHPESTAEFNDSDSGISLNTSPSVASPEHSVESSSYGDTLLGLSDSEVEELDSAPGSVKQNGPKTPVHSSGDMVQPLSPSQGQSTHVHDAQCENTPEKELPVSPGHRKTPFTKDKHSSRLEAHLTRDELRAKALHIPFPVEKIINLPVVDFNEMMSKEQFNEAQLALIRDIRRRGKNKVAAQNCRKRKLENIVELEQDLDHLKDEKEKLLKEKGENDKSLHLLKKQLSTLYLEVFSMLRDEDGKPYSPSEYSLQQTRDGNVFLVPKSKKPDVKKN
Keap1/Nrf2, sequence (Q14145 whole entry): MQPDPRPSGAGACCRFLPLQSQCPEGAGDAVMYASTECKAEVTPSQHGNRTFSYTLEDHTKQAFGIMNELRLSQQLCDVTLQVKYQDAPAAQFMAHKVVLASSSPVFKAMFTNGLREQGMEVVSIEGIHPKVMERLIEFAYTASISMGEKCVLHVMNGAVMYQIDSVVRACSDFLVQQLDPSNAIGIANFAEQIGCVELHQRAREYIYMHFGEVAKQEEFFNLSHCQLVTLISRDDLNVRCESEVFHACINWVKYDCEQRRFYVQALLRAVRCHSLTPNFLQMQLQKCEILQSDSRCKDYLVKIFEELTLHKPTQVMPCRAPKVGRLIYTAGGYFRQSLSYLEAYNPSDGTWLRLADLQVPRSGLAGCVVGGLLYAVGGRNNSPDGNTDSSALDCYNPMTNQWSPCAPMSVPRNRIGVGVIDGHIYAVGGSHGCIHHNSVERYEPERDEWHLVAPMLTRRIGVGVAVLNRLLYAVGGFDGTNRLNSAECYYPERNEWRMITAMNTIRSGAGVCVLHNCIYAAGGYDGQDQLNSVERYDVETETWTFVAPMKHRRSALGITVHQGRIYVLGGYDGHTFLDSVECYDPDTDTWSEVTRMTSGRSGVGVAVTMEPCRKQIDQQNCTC
Voltage-dependent T-type calcium channel subunit alpha-1H, sequence (O95180 whole entry): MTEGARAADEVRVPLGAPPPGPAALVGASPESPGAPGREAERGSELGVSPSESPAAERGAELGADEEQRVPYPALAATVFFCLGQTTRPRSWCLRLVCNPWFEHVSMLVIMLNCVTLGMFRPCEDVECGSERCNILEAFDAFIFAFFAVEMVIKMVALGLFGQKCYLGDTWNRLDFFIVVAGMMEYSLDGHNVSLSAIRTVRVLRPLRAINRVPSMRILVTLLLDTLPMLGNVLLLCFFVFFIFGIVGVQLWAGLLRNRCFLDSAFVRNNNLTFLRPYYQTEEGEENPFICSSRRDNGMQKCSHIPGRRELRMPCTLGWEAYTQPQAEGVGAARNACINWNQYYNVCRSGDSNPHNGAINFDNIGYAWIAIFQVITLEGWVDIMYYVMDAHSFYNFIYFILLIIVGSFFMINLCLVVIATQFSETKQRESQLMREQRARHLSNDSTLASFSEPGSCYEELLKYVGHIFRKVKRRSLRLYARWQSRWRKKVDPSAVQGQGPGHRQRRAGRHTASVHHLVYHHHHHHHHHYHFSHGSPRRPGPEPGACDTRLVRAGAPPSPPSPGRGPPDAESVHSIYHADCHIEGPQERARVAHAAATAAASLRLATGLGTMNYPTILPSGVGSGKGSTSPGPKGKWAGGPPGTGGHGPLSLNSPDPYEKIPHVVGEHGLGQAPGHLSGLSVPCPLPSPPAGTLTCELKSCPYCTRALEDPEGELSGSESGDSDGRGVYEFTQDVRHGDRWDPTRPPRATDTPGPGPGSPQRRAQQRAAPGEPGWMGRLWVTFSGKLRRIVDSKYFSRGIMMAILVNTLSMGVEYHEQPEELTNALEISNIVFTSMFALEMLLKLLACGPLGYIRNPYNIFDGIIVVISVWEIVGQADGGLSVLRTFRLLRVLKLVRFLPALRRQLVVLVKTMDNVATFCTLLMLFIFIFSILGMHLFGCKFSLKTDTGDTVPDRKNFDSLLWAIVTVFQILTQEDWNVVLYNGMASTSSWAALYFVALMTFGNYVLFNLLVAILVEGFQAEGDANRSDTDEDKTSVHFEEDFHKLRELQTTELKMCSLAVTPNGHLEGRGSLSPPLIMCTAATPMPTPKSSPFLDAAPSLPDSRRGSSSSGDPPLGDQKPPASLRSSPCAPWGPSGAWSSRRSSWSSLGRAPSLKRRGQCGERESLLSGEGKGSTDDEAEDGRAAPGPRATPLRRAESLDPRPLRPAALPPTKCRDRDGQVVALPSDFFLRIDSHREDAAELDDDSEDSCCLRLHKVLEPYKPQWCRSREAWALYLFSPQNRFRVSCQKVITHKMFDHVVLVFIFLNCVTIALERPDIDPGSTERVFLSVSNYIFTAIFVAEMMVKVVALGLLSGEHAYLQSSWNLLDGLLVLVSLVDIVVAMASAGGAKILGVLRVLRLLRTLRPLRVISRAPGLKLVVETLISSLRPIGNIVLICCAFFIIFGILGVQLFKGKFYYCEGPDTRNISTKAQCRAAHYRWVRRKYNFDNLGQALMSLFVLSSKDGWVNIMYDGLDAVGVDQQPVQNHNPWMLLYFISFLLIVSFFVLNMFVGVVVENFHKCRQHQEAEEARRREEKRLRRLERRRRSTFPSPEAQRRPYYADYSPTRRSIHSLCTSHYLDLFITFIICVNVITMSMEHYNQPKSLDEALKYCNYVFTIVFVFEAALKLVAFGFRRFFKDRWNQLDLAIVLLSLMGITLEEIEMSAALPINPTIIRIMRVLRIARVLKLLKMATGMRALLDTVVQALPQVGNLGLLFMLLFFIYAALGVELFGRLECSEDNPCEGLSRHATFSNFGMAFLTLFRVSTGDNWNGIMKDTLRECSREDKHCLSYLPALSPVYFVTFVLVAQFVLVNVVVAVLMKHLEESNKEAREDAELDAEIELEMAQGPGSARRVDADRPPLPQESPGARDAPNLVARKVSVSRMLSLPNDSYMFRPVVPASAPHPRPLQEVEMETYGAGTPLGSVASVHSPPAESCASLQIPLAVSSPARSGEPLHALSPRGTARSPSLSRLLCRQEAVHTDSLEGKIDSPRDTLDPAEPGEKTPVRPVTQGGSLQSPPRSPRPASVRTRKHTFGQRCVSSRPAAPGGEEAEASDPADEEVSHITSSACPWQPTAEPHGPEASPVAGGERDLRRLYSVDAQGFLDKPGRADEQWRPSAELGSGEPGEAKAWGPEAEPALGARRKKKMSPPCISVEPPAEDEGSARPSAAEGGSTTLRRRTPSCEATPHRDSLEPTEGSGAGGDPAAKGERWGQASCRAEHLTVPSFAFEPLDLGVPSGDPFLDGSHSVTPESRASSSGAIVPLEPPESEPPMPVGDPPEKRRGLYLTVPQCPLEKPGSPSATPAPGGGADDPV

Structure (SMILES): Cc1cc2nc3c(=O)n(C4CCCCC4)c(=O)[nH]c3nc2cc1N
- IC50 [1]: > 50 µM (not active)
- AC50 (ORF 73): 27.6 µM (active)
- AC50 (Keap1/Nrf2): 1.92 µM (active)

Structure (SMILES): CC(C)Cn1c(=O)[nH]c(=O)c2c(C(F)(F)F)cc(-c3ccccc3)nc21
- EC50 (HEK293 [2]): > 59.6 µM (inactive)
- EC50 (HEK293 [3]): > 59.6 µM (inactive)

Structure (SMILES): Cc1ccc(-c2oc3ccccc3c(=O)c2O)cc1
- IC50 (Exodeoxyribonuclease V): > 119 µM (inactive)
- IC50 [4]: > 119 µM (inactive)
- EC50 [5]: > 195 µM (not active)

Structure (SMILES): CN1CCN(CC/C=C2/c3ccccc3Sc3ccc(S(=O)(=O)N(C)C)cc32)CC1 [THIOTHIXENE]
- CC50 [6]: > 40 µM (active)
- CC50 (Vero [7]): 15.2 µM (active)
- IC50 [8]: > 20 µM (inactive)
- IC50 (Vero [9]): > 25 µM (active)

Structure (SMILES): CCOC(=O)C1CCCN(C(=O)C2c3ccccc3Oc3ccccc32)C1 (configuration not stated)
- EC50 [10]: 38.8 µM (active)
- AC50 (ORF 73): 127 µM (active)
- AC50 (Keap1/Nrf2): > 52 µM (inactive)

Structure (SMILES): Clc1nss/c1=N\C1=NCCS1
- IC50 [11]: > 100 µM (inactive)

Structure (SMILES): CCOc1nss/c1=N\c1ccc2ccccc2c1
- IC50 [11]: > 100 µM (inactive)
